Measured values from the supplement of paper PMC7017272.
± gives the standard deviation of the averaged measurements.

Experiments:
Assay in all cases: drug sensitivity score (DSS); higher = more sensitive; extreme values may be limits of the assay
Conditions in all cases: treatment time: 3 days
UT-SCC-8 = tested on: UT-SCC-8
Procedure, shortened: (§1)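 HPV-negative HNSCC cell lines were plated at 500 cells/well in 384-well plates, either on plastic, on wells coated with Matrigel or Myogel (500 µg/mL), or embedded in Matrigel or Myogel plus rat collagen I. Each compound was tested at five 10-fold concentrations over 3 days. Viability was measured by CellTiter-Glo 2.0 luminescence, and IC50, maximal inhibition and drug sensitivity score came from percent-inhibition dose–response curves fitted in the FIMM pipeline after normalisation to vehicle (0.1% DMSO) and cell-killing control wells.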

UT-SCC-24B = tested on: UT-SCC-24B
Procedure, shortened: as §1

UT-SCC-42B = tested on: UT-SCC-42B
Procedure, shortened: as §1

UT-SCC-73 = tested on: UT-SCC-73
Procedure, shortened: as §1

UT-SCC-81 = tested on: UT-SCC-81
Procedure, shortened: as §1

UT-SCC-40 = tested on: UT-SCC-40
Procedure, shortened: as §1

UT-SCC-106A = tested on: UT-SCC-106A
Procedure, shortened: as §1

UT-SCC-44 = tested on: UT-SCC-44
Procedure, shortened: as §1

UT-SCC-42A = tested on: UT-SCC-42A
Procedure, shortened: as §1

[1] = culture condition: embedded in Matrigel
[2] = culture condition: embedded in Myogel + collagen I
[3] = culture condition: on top of Matrigel
[4] = culture condition: on top of Myogel
[5] = culture condition: plastic 2D (no matrix)

In the case of `C=CC(=O)Nc1cc2c(Nc3ccc(F)c(Cl)c3)ncnc2cc1OCCCN1CCOCC1` [Canertinib], the drug sensitivity score (UT-SCC-8; [1]) is reported as 29.83 ± 0.058 DSS, the drug sensitivity score (UT-SCC-8; [2]) is reported as 4.77 ± 0.81 DSS and the drug sensitivity score (UT-SCC-8; [3]) is reported as 29.7 ± 0.64 DSS. The drug sensitivity score (UT-SCC-8; [4]) was 11.6 ± 2.1 DSS, the drug sensitivity score (UT-SCC-8; [5]) was 29 ± 0.85 DSS and the drug sensitivity score (UT-SCC-24B; [1]) was 17.8 ± 0.7 DSS. For the same molecule, the drug sensitivity score (UT-SCC-24B; [2]) was 9.13 ± 0.25 DSS, the drug sensitivity score (UT-SCC-24B; [3]) was 18.1 ± 0.57 DSS and the drug sensitivity score (UT-SCC-24B; [4]) was 9.17 ± 0.12 DSS. It also gave a drug sensitivity score (UT-SCC-24B; [5]) of 26.2 ± 0.55 DSS, a drug sensitivity score (UT-SCC-42B; [1]) of 23.7 ± 2.4 DSS and a drug sensitivity score (UT-SCC-42B; [3]) of 16.9 ± 2 DSS. It also gave a drug sensitivity score (UT-SCC-42B; [4]) of 6.83 ± 0.35 DSS, a drug sensitivity score (UT-SCC-42B; [5]) of 12 ± 1.2 DSS and a drug sensitivity score (UT-SCC-73; [1]) of 7.6 ± 1.1 DSS. The drug sensitivity score (UT-SCC-73; [2]) was 7.73 ± 2.5 DSS, the drug sensitivity score (UT-SCC-73; [3]) was 8.83 ± 0.23 DSS and the drug sensitivity score (UT-SCC-73; [4]) was 8.53 ± 0.75 DSS. For the same molecule, the drug sensitivity score (UT-SCC-73; [5]) was 8.87 ± 0.15 DSS, the drug sensitivity score (UT-SCC-81; [1]) was 29.4 ± 1.3 DSS and the drug sensitivity score (UT-SCC-81; [2]) was 9.43 ± 3.1 DSS. For the same molecule, the drug sensitivity score (UT-SCC-81; [3]) was 27.53 ± 0.12 DSS, the drug sensitivity score (UT-SCC-81; [4]) was 8.9 ± 0.27 DSS and the drug sensitivity score (UT-SCC-81; [5]) was 26.1 ± 0.51 DSS. The drug sensitivity score (UT-SCC-40; [1]) was 27.4 ± 1.1 DSS, the drug sensitivity score (UT-SCC-40; [2]) was 10.4 ± 1.9 DSS and the drug sensitivity score (UT-SCC-40; [3]) was 26.2 ± 0.62 DSS. The drug sensitivity score (UT-SCC-40; [4]) was 10 ± 1.6 DSS, the drug sensitivity score (UT-SCC-40; [5]) was 18.6 ± 0.5 DSS and the drug sensitivity score (UT-SCC-106A; [1]) was 15.8 ± 1.5 DSS. The drug sensitivity score (UT-SCC-106A; [2]) was 5.8 ± 0.1 DSS, the drug sensitivity score (UT-SCC-106A; [3]) was 19.2 ± 1.5 DSS and the drug sensitivity score (UT-SCC-106A; [4]) was 7.13 ± 0.71 DSS. For the same molecule, the drug sensitivity score (UT-SCC-106A; [5]) was 21 ± 0.93 DSS, the drug sensitivity score (UT-SCC-44; [1]) was 4 ± 0.3 DSS and the drug sensitivity score (UT-SCC-44; [2]) was 6.57 ± 1.5 DSS. It also gave a drug sensitivity score (UT-SCC-44; [3]) of 8.2 ± 0.27 DSS, a drug sensitivity score (UT-SCC-44; [4]) of 7.47 ± 2.1 DSS and a drug sensitivity score (UT-SCC-44; [5]) of 7.63 ± 1.1 DSS. It also gave a drug sensitivity score (UT-SCC-42A; [1]) of 17.1 ± 0.32 DSS, a drug sensitivity score (UT-SCC-42A; [2]) of 7.67 ± 1.3 DSS and a drug sensitivity score (UT-SCC-42A; [3]) of 18.4 ± 1.2 DSS. The drug sensitivity score (UT-SCC-42A; [4]) was 9.8 ± 0.98 DSS.
